Source: PubChem BioAssay AID2060603 (Molecular Pharmacology Branch, DTP, NCI, 2025)
Each block holds one compound with its values, some of them ahead of it.

Tested on: 422866-222-R5-J1-PDC spheroid viability
Experiment: Anticancer human tumor 422866-222-R5-J1-PDC patient-derived pancreatic adenocarcinoma cell line growth inhibition [CLK]
Details: spheroids with HUVEC and MSC; for IC50: curve of first compound; for viability, T/C: stronger effect = lower value
Summary of the method: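 Multi-cell-type spheroids combined patient-derived tumor cells with HUVEC endothelial cells and human mesenchymal stem cells. Paired agents were dosed in half-log steps down from about clinical Cmax, or from 10 microM where Cmax was unknown.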

[1] = second compound 0.0316 µM, first compound 0.0316 µM
[2] = second compound 0.0316 µM, first compound 0.1 µM
[3] = second compound 0.0316 µM, first compound 0.316 µM
[4] = second compound 0.0316 µM, first compound 1 µM
[5] = second compound 0.0316 µM, first compound 3.16 µM
[6] = second compound 0.0316 µM, first compound 10 µM
[7] = second compound 0.1 µM, first compound 0.0316 µM
[8] = second compound 0.1 µM, first compound 0.1 µM
[9] = second compound 0.1 µM, first compound 0.316 µM
[10] = second compound 0.1 µM, first compound 1 µM
[11] = second compound 0.1 µM, first compound 3.16 µM
[12] = second compound 0.1 µM, first compound 10 µM
[13] = second compound 0.316 µM, first compound 0.0316 µM
[14] = second compound 0.316 µM, first compound 0.1 µM
[15] = second compound 0.316 µM, first compound 0.316 µM
[16] = second compound 0.316 µM, first compound 1 µM
[17] = second compound 0.316 µM, first compound 3.16 µM
[18] = second compound 0.316 µM, first compound 10 µM
[19] = second compound 1 µM, first compound 0.0316 µM
[20] = second compound 1 µM, first compound 0.1 µM
[21] = second compound 1 µM, first compound 0.316 µM
[22] = second compound 1 µM, first compound 1 µM
[23] = second compound 1 µM, first compound 3.16 µM
[24] = second compound 1 µM, first compound 10 µM
[25] = second compound 3.16 µM, first compound 0.0316 µM
[26] = second compound 3.16 µM, first compound 0.1 µM
[27] = second compound 3.16 µM, first compound 0.316 µM
[28] = second compound 3.16 µM, first compound 1 µM
[29] = second compound 3.16 µM, first compound 3.16 µM
[30] = second compound 3.16 µM, first compound 10 µM
[31] = second compound 10 µM, first compound 0.0316 µM
[32] = second compound 10 µM, first compound 0.1 µM
[33] = second compound 10 µM, first compound 0.316 µM
[34] = second compound 10 µM, first compound 1 µM
[35] = second compound 10 µM, first compound 3.16 µM
[36] = second compound 10 µM, first compound 10 µM
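Further: spheroids exposed to agents for seven days before readout.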

SMILES: COc1cccc2c1C(=O)c1c(O)c3c(c(O)c1C2=O)CC(O)(C(=O)CO)CC3OC1CC(N)C(O)C(C)O1 (stereo unspecified) + CN1CCN(c2cc(C(=O)Nc3cc4cc(-c5cnn(C)c5)ccc4cn3)ccn2)CC1
IC50 (second compound 0.0316 µM): 0.109 µM
IC50 (second compound 0.1 µM): 0.174 µM
IC50 (second compound 0.316 µM): 0.22 µM
IC50 (second compound 1 µM): < 0.0316 µM
IC50 (second compound 3.16 µM): < 0.0316 µM
IC50 (second compound 10 µM): < 0.0316 µM
viability, T/C [1]: 73.1%
viability, T/C [2]: 50.2%
viability, T/C [3]: 40.9%
viability, T/C [4]: 28.2%
viability, T/C [5]: 31%
viability, T/C [6]: 36%
viability, T/C [7]: 74%
viability, T/C [8]: 59.4%
viability, T/C [9]: 38.5%
viability, T/C [10]: 34.3%
viability, T/C [11]: 39.9%
viability, T/C [12]: 47.1%
viability, T/C [13]: 73%
viability, T/C [14]: 67.4%
viability, T/C [15]: 42.1%
viability, T/C [16]: 35.8%
viability, T/C [17]: 30.7%
viability, T/C [18]: 46.5%
viability, T/C [19]: 19.8%
viability, T/C [20]: 16.7%
viability, T/C [21]: 15.3%
viability, T/C [22]: 20.3%
viability, T/C [23]: 38%
viability, T/C [24]: 54.5%
viability, T/C [25]: 8.41%
viability, T/C [26]: 7.95%
viability, T/C [27]: 11.9%
viability, T/C [28]: 22.1%
viability, T/C [29]: 33.8%
viability, T/C [30]: 51%
viability, T/C [31]: 1.49%
viability, T/C [32]: 1.52%
viability, T/C [33]: 2.85%
viability, T/C [34]: 3.41%
viability, T/C [35]: 10.8%
viability, T/C [36]: 13.8%

IC50 (second compound 0.0316 µM): > 10 µM
IC50 (second compound 0.1 µM): > 10 µM
IC50 (second compound 0.316 µM): > 10 µM
IC50 (second compound 1 µM): > 10 µM
IC50 (second compound 3.16 µM): > 10 µM
IC50 (second compound 10 µM): > 10 µM
SMILES: CCCS(=O)(=O)Nc1ccc(F)c(C(=O)c2c[nH]c3ncc(-c4ccc(Cl)cc4)cc23)c1F + CNC(=O)c1ccc(Nc2nc(OC3CCCC3)c3c(-c4ccc5nc(C)oc5c4)c[nH]c3n2)c(OC)c1
viability, T/C [1]: 93.6%
viability, T/C [2]: 111%
viability, T/C [3]: 141%
viability, T/C [4]: 155%
viability, T/C [5]: 190%
viability, T/C [6]: 134%
viability, T/C [7]: 99.8%
viability, T/C [8]: 102%
viability, T/C [9]: 114%
viability, T/C [10]: 152%
viability, T/C [11]: 224%
viability, T/C [12]: 122%
viability, T/C [13]: 81.5%
viability, T/C [14]: 77.2%
viability, T/C [15]: 79.3%
viability, T/C [16]: 105%
viability, T/C [17]: 101%
viability, T/C [18]: 104%
viability, T/C [19]: 69%
viability, T/C [20]: 75.9%
viability, T/C [21]: 81.1%
viability, T/C [22]: 91%
viability, T/C [23]: 114%
viability, T/C [24]: 92.3%
viability, T/C [25]: 58.4%
viability, T/C [26]: 70.1%
viability, T/C [27]: 67.1%
viability, T/C [28]: 84.6%
viability, T/C [29]: 128%
viability, T/C [30]: 84%
viability, T/C [31]: 57.8%
viability, T/C [32]: 69.2%
viability, T/C [33]: 74.8%
viability, T/C [34]: 75.9%
viability, T/C [35]: 117%
viability, T/C [36]: 80.7%

IC50 (second compound 0.0316 µM): > 10 µM
IC50 (second compound 0.1 µM): > 10 µM
IC50 (second compound 0.316 µM): > 10 µM
IC50 (second compound 1 µM): > 10 µM
IC50 (second compound 3.16 µM): > 10 µM
IC50 (second compound 10 µM): > 10 µM
SMILES: COC1C=CCC(C)C(C)S(=O)(=O)NC(=O)c2ccc3c(c2)N(CC2CCC21)CC1(CCCc2cc(Cl)ccc21)CO3 (stereo unspecified) + CNC(=O)c1ccc(Nc2nc(OC3CCCC3)c3c(-c4ccc5nc(C)oc5c4)c[nH]c3n2)c(OC)c1
viability, T/C [1]: 118%
viability, T/C [2]: 112%
viability, T/C [3]: 114%
viability, T/C [4]: 96.4%
viability, T/C [5]: 120%
viability, T/C [6]: 84.6%
viability, T/C [7]: 101%
viability, T/C [8]: 92.9%
viability, T/C [9]: 94.1%
viability, T/C [10]: 89.2%
viability, T/C [11]: 97.8%
viability, T/C [12]: 79.6%
viability, T/C [13]: 85.2%
viability, T/C [14]: 86.5%
viability, T/C [15]: 72.9%
viability, T/C [16]: 82.3%
viability, T/C [17]: 91.6%
viability, T/C [18]: 86.6%
viability, T/C [19]: 69.3%
viability, T/C [20]: 68.7%
viability, T/C [21]: 60%
viability, T/C [22]: 63.9%
viability, T/C [23]: 87%
viability, T/C [24]: 82.2%
viability, T/C [25]: 69.9%
viability, T/C [26]: 61.5%
viability, T/C [27]: 62.4%
viability, T/C [28]: 57.9%
viability, T/C [29]: 88%
viability, T/C [30]: 82%
viability, T/C [31]: 58%
viability, T/C [32]: 59.5%
viability, T/C [33]: 69.5%
viability, T/C [34]: 72.8%
viability, T/C [35]: 94.8%
viability, T/C [36]: 91.5%
